# In patent US11021481B2, “Substituted isoindolin-1-ones and 2,3-dihydro-1h-pyrrolo[3,4-c]pyridin-1-ones as HPK1 antagonists” (Nimbus Saturn, Inc., priority 2019, dated 2021):
# Molecular target: HPK1 (Homo sapiens (Human), UniProt Q92918)
# Test: HPK1 biochemical enzyme assay (microfluidic mobility shift assay)
# Settings: 1.5 nM HPK1, ATP 1 mM final, 30 min preincubation, 60 min at RT, Caliper EZ Reader; read-out: HPK1 1000UMATP caliper IC50
# Method in brief: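 Mobility shift readout of HPK1 activity after a 60 min RT reaction with 1 mM ATP, 1 μM substrate and 5 mM MgCl2. Enzyme/substrate mix was first exposed to compounds for 30 min, using ten-point curves topping at 3 μM final.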
# Chain of HPK1 (Q92918 whole entry): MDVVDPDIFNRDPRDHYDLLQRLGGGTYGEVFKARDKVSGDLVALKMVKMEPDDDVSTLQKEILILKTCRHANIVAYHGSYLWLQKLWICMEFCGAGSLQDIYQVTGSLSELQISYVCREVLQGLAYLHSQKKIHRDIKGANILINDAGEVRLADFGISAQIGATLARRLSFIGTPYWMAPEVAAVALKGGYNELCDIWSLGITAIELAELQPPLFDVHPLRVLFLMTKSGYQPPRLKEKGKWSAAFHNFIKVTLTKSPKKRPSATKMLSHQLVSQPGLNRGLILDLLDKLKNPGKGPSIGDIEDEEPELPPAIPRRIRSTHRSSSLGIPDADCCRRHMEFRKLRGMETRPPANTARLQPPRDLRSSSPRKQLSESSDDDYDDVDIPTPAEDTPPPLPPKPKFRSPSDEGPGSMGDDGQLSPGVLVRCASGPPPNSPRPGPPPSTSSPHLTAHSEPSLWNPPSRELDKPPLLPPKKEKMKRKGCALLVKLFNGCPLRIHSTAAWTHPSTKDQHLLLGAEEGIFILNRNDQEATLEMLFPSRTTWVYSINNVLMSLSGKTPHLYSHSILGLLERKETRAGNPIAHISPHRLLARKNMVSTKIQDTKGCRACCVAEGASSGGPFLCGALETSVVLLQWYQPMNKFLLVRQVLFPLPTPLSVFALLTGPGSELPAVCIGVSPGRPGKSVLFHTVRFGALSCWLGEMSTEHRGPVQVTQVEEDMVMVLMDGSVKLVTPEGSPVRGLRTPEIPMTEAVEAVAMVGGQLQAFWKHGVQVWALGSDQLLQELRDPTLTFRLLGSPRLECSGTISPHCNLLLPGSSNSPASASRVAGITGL
row,IC50 [nM],Compound
1,< 100,"Cc1ccn2c(-c3ccc(Nc4ccc(N5CCC[C@H](O)C5)cn4)c4c3CNC4=O)cnc2c1 [I-170, 7-[[5-[(3S)-3-hydroxy-1-piperidyl]-2-pyridyl]amino]-4-(7-methylimidazo [1,2-a]pyridin-3-yl)isoindolin-1-one]"
2,< 100,"C[C@H](c1ccc(Nc2ccc(-c3cnc4cc(F)ccn34)c3c2C(=O)NC3)nc1)N1CCC[C@H](O)C1 (stereo in doubt) [I-514, 4-(7-fluoroimidazo [1,2-a]pyridin-3-yl)-7-((5-((R)-1-((S)-3-hydroxypiperidin-1-yl)ethyl)pyridin-2-yl)amino)isoin-dolin-1-one]"
3,< 100,"CN1CCN(c2cccc(Nc3ccc(-c4cnc5cc(Cl)ccn45)c4c3C(=O)NC4)n2)CC1 [I-236, 4-(7-chloroimidazo [1,2-a]pyridin-3-yl)-7-[[6-(4-methylpiperazin-1-yl)-2-pyridyl]amino] isoindolin-1-one]"
4,< 100,"CN(C[C@H]1CN(c2ccc(Nc3ccc(-c4cnc5cc(F)ccn45)c4c3C(=O)NC4)nc2)CCO1)C1CC1 [I-499, 7-[[5-[(2S)-2-[[cyclopropyl (methyl)amino]methyl]morpholin-4-yl]-2-pyridyl]amino] 4-(7-fluoroimidazo [1,2-a]pyridin-3-yl)isoindolin-1-one]"
5,< 100,"Cc1ccn2c(-c3ccc(Nc4ccc(CN5CCOCC5)cn4)c4c3CNC4=O)cnc2c1F [I-468, 4-(8-fluoro-7-methyl-imidazo[1,2-a]pyridin-3-yl)-7-[[5-(morpholino-methyl)-2-pyridyl]amino] isoindolin-1-one]"
6,< 100,"C[C@@H](O)[C@H]1CN(c2ccc(Nc3ccc(-c4cnc5cc(F)ccn45)c4c3C(=O)NC4)nc2)CCO1 (single isomer, unassigned) [I-619]"
7,< 100,CC(C)(O)[C@@H]1CN(c2ccc(Nc3ccc(-c4cnc5cc(F)ccn45)c4c3C(=O)NC4)nc2)CCO1 [I-344]
8,< 100,"CC(C)(O)[C@@H]1CN(c2ccc(Nc3ccc(-c4cnc5cnccn45)c4c3C(=O)NC4)nc2)CCO1 [I-457, 7-[[5-[(2S)-2-(1-hydroxy-1-methyl-ethyl)morpholin-4-yl]-2-pyridyl]amino] 4-imidazo[1,2-a]pyrazin-3-yl-isoindolin-1-one]"
9,< 100,"CN(C)Cc1nc(Nc2ccc(-c3cnc4cc(F)ccn34)c3c2C(=O)NC3)ccc1N1CCOCC1 [I-693, 7-((6-((dimethylamino)-methyl)-5-morpholino-pyridin-2-yl)amino)-4-(7-fluoroimidazo [1,2-a]pyridin-3-yl)isoindolin-1-one]"
10,< 100,"CNC1CCN(c2ccc(Nc3ccc(-c4cnc5ccccn45)c4c3C(=O)NC4)nc2)CC1 [I-58, 4-imidazo[1,2-a]pyridin-3-yl-7-[[5-[4-(methylamino)-1-piperidyl]-2-pyridyl]amino] isoindolin-1-one]"
11,< 100,"O=C1NCc2c(-c3ccnc4ccsc34)ccc(Nc3ccc(N4CCNCC4)cn3)c21 [I-107, 7-[(5-piperazin-1-yl-2-pyridyl)amino]-4-thieno[3,2-b]pyridin-7-yl-isoindolin-1-one]"
12,> 1000,"O=C1NCc2c(-c3ccnn4ccnc34)ncc(Nc3ccc(N4CCC(O)CC4)cn3)c21 [I-565, 7-((5-(4-hydroxypiperidin-1-yl)pyridin-2-yl)amino)-4-(imidazo[1,2-b]pyridazin-8-yl)-2,3-dihydro-1H-pyrrolo[3,4-c]pyridin-1-one]"
13,< 100,"O=C1NCc2c(-c3cnc4cc(F)ccn34)ccc(Nc3ccc([C@H]4CCOC4)c(CN4CC(F)C4)n3)c21 [I-762, (R)-7-((6-((3-fluoroazetidin-1-yl)methyl)-5-(tetrahydrofuran-3-yl)pyridin-2-yl)amino)-4-(7-fluoroimidazo [1,2-a]pyridin-3-yl)isoindolin-1-one]"
14,< 100,"Cc1ccn2c(-c3ccc(Nc4ccc(N5CCO[C@H](CO)C5)cn4)c4c3CNC4=O)cnc2n1 [I-452, 7-[[5-[(2S)-2-(hydroxymeth-yl)morpholin-4-yl]-2-pyridyl]amino]-4-(7-methylimidazo [1,2-a]pyrimidin-3-yl)isoindolin-1-one]"
15,< 100,"CNC1CCN(c2ccc(Nc3ccc(-c4ccnc5[nH]ccc45)c4c3C(=O)NC4)nc2)CC1 [I-57, 7-[[5-[4-(methylamino)-1-piperidyl]-2-pyridyl]amino]-4-(1H-pyrrolo[2,3-b]pyridin-4-yl)isoindolin-1-one]"
16,< 100,CN(C)Cc1nc(Nc2ccc(-c3cnc4cc(F)ccn34)c3c2C(=O)NC3)ccc1N1CC[C@H](O)C1 [I-555]
17,< 100,"CN(C)CC1(O)CCN(c2ccc(Nc3ccc(-c4cnc5cc(F)ccn45)c4c3C(=O)NC4)nc2)CC1 [I-366, 7-((5-(4-((dimethylamino)-methyl)-4-hydroxypiperidin-1-yl)pyridin-2-yl)amino)-4-(7-fluoroimidazo [1,2-a]pyridin-3-yl)isoindolin-1-one]"
18,< 100,"CN(C)Cc1nc(Nc2ccc(-c3cnc4cc(F)ccn34)c3c2C(=O)NC3)ccc1C1CCC1 [I-788, 7-((5-cyclobutyl-6-((dimethylamino)-methyl)pyri-din-2-yl)amino)-4-(7-fluoroimidazo [1,2-a]pyridin-3-yl)isoindolin-1-one]"
19,100 to 1000,"CN1CCN(c2cccc(Nc3ccc(-c4cnc5cnccn45)c4c3C(=O)NC4)n2)CC1 [I-234, 4-imidazo[1,2-a]pyrazin-3-yl-7-[[6-(4-methylpiperazin-1-yl)-2-pyridyl]-amino]isoindolin-1-one]"
20,100 to 1000,"CCNC(=O)c1ccn2c(-c3ccc(Nc4ccc(N5CCOCC5)cn4)c4c3CNC4=O)cnc2c1 [I-207, N-ethyl-3-[7-[(5-morpholino-2-pyridyl)-amino]-1-oxo-isoindolin-4-yl]imidazo[1,2-a]pyridine-7-carboxamide]"
21,100 to 1000,"O=C1NCc2c(-c3cnn4c3CCC(C(=O)NC3CC3)C4)ccc(Nc3ccc(N4CCC(O)CC4)cn3)c21 (stereo not shown) [I-150, N-cyclopropyl-3-[7-[[5-(4-hydroxy-1-piperidyl)-2-pyridyl]amino]-1-oxo-isoindolin-4-yl]-4,5,6,7-tetrahydropyra-zolo[1,5-a]pyridine-6-carboxamide]"
22,< 100,"CC1(CO)CCN(c2ccc(Nc3ccc(-c4cnc5cc(F)ccn45)c4c3C(=O)NC4)nc2)CC1 [I-433, 4-(7-fluoroimidazo [1,2-a]pyridin-3-yl)-7-((5-(4-(hydroxymeth-yl]-4-methylpiperidin-1-yl)pyridin-2-yl)amino)isoin-dolin-1-one]"
23,< 100,"Cn1ccc2c(-c3ncc(Nc4ccc(N5CC[C@H](F)[C@@H](O)C5)cn4)c4c3CNC4=O)ccnc21 [I-417, 7-((5-((3S,4S)-4-fluoro-3-hydroxy-piperidin-1-yl)pyridin-2-yl)amino)-4-(1-methyl-1H-pyrrolo[2,3-b]pyridin-4-yl)-2,3-dihydro-1H-pyrrolo[3,4-c]pyridin-1-one]"
24,< 100,"O=C1NCc2c(-c3cnc4cc(F)ccn34)ccc(Nc3ccc(N4CC[C@H](F)[C@H](O)C4)cn3)c21 [I-359, 7-((5-((3R,4S)-4-fluoro-3-hydroxy-piperidin-1-yl)pyridin-2-yl)amino)-4-(7-fluoroimidazo [1,2-a]pyridin-3-yl)isoindolin-1-one]"
25,100 to 1000,"O=C1NCc2c(-c3cncc4nccn34)ncc(Nc3ccc(N4CCC(O)CC4)cn3)c21 [I-376, 7-((5-(4-hydroxypiperidin-1-yl)pyridin-2-yl)amino)-4-(imidazo[1,2-a]pyrazin-5-yl)-2,3-dihydro-1H-pyrrolo[3,4-c]pyridin-1-one]"
